Results as given in patent EP4104902B1, “COMPOUNDS AND M[…] SAME” (priority 2020, dated 2021).

Assays:
[1] = tested on: mouse neuroblastoma cell strain Neuro-2A; test: Anti-cancer cell activity evaluation (minimum inhibitory concentration with respect to cells); assay type: cell-based; details: MIC, 3 days
[2] = tested on: recombinant rabies virus 1088 strain expressing Gaussia Luciferase (GLuc) (1088/GLuc); assay type: cell-based; details: read-out: Anti-rabies activity
[3] = compounds of formula XXIIB and formula XXIIF (continuation)

CC(C)CN1C[C@@H]2C[C@H]3CN[C@]2(C(=O)NCc2ccc(Cl)cc2)[C@@H]1[C@@H]3CCc1ccccc1 (relative stereo) [IB-925]
Anti-cancer cell activity ([1]; compounds of formula XXIB): c (c if greater than 20 µM and less than or equal to 40 µM)
IC50 [2]: < 5 µM

CC(C)CN1C[C@@H]2C[C@H]3CN[C@]2(C(=O)NCc2cccc(Cl)c2)[C@@H]1[C@@H]3CCc1ccccc1 (relative stereo) [IB-926]
Anti-cancer cell activity ([1]; compounds of formula XXIB): b (b if greater than 10 µM and less than or equal to 20 µM)
IC50 [2]: < 5 µM

COc1ccc(CNC(=O)[C@]23NC[C@@H]4C[C@H]2CN(CC(C)C)[C@H]3[C@@H]4CCc2ccccc2)cc1 (relative stereo) [IB-927]
Anti-cancer cell activity ([1]; compounds of formula XXIB): c (c if greater than 20 µM and less than or equal to 40 µM)
IC50 [2]: < 5 µM

Cc1ccc(CNC(=O)[C@]23NC[C@@H]4C[C@H]2CN(CC(C)C)[C@H]3[C@@H]4CCc2ccccc2)cc1 (relative stereo) [IB-928]
Anti-cancer cell activity ([1]; compounds of formula XXIB): c (c if greater than 20 µM and less than or equal to 40 µM)
IC50 [2]: < 5 µM

CC(C)CN1C[C@@H]2C[C@H]3CN[C@]2(C(=O)NCc2ccc4ccccc4c2)[C@@H]1[C@@H]3CCc1ccccc1 (relative stereo) [IB-929]
Anti-cancer cell activity ([1]; compounds of formula XXIB): b (b if greater than 10 µM and less than or equal to 20 µM)
IC50 [2]: < 5 µM

CC(C)CN1C[C@@H]2C[C@H]3CN[C@]2(C(=O)NCc2ccccc2)[C@@H]1[C@@H]3CCCc1ccccc1 (relative stereo) [IB-930]
Anti-cancer cell activity ([1]; compounds of formula XXIB): c (c if greater than 20 µM and less than or equal to 40 µM)
IC50 [2]: < 5 µM

CC(C)CN1C[C@@H]2C[C@H]3CN[C@]2(C(=O)NCc2cccc(Cl)c2)[C@@H]1[C@@H]3CCCc1ccccc1 (relative stereo) [IB-931]
Anti-cancer cell activity ([1]; compounds of formula XXIB): c (c if greater than 20 µM and less than or equal to 40 µM)
IC50 [2]: < 5 µM

CC(C)CN1C[C@@H]2C[C@H]3CN[C@]2(C(=O)NCc2cccc(F)c2)[C@@H]1[C@@H]3CCCc1ccccc1 (relative stereo) [IB-932]
Anti-cancer cell activity ([1]; compounds of formula XXIB): c (c if greater than 20 µM and less than or equal to 40 µM)
IC50 [2]: < 5 µM

Cc1cccc(CNC(=O)[C@]23NC[C@@H]4C[C@H]2CN(CC(C)C)[C@H]3[C@@H]4CCCc2ccccc2)c1 (relative stereo) [IB-933]
Anti-cancer cell activity ([1]; compounds of formula XXIB): b (b if greater than 10 µM and less than or equal to 20 µM)
IC50 [2]: < 5 µM

COc1cccc(CNC(=O)[C@]23NC[C@@H]4C[C@H]2CN(CC(C)C)[C@H]3[C@@H]4CCCc2ccccc2)c1 (relative stereo) [IB-934]
Anti-cancer cell activity ([1]; compounds of formula XXIB): b (b if greater than 10 µM and less than or equal to 20 µM)
IC50 [2]: < 5 µM

CC(C)CN1C[C@@H]2C[C@H]3CN[C@]2(C(=O)NCc2cccc(Cl)c2)[C@@H]1[C@@H]3CCCCc1ccccc1 (relative stereo) [IB-935]
Anti-cancer cell activity ([1]; compounds of formula XXIB): c (c if greater than 20 µM and less than or equal to 40 µM)
IC50 [2]: < 5 µM

CC(C)CN1C[C@@H]2C[C@H]3CN[C@]2(C(=O)NCc2cccc(F)c2)[C@@H]1[C@@H]3CCCCc1ccccc1 (relative stereo) [IB-936]
Anti-cancer cell activity ([1]; compounds of formula XXIB): b (b if greater than 10 µM and less than or equal to 20 µM)
IC50 [2]: < 5 µM

Cc1cccc(CNC(=O)[C@]23NC[C@@H]4C[C@H]2CN(CC(C)C)[C@H]3[C@@H]4CCCCc2ccccc2)c1 (relative stereo) [IB-937]
Anti-cancer cell activity ([1]; compounds of formula XXIB): c (c if greater than 20 µM and less than or equal to 40 µM)
IC50 [2]: < 5 µM

CC(C)CN1C[C@@H]2C[C@H]3CN[C@]2(C(=O)NCc2ccccc2)[C@@H]1[C@@H]3CCCCc1ccccc1 (relative stereo) [IB-939]
Anti-cancer cell activity ([1]; compounds of formula XXIB): c (c if greater than 20 µM and less than or equal to 40 µM)
IC50 [2]: < 5 µM

CC(C)CCN1C[C@@H]2C[C@H]3CN[C@]2(C(=O)NCc2cccc(F)c2)[C@@H]1[C@@H]3CCCc1ccccc1 (relative stereo) [IB-940]
Anti-cancer cell activity ([1]; compounds of formula XXIB): c (c if greater than 20 µM and less than or equal to 40 µM)
IC50 [2]: < 5 µM

CC(C)CCN1C[C@H]2C[C@]3(C(=O)NCc4ccc(Cl)cc4)N=C[C@H]2[C@H]1[C@H]3Cc1ccccc1 (relative stereo) [IIF-326]
Anti-cancer cell activity [1, 3]: b (b if greater than 10 µM and less than or equal to 20 µM)
IC50 [2]: < 5 µM

CC(C)CN1C[C@H]2C[C@]3(C(=O)NCc4ccc(Cl)cc4)N=C[C@H]2[C@H]1[C@H]3CCc1ccccc1 (relative stereo) [IIF-330]
Anti-cancer cell activity [1, 3]: c (c if greater than 20 µM and less than or equal to 40 µM)
IC50 [2]: < 5 µM

CC(C)CN1C[C@H]2C[C@]3(C(=O)NCc4cccc(Cl)c4)N=C[C@H]2[C@H]1[C@H]3CCc1ccccc1 (relative stereo) [IIF-331]
Anti-cancer cell activity [1, 3]: c (c if greater than 20 µM and less than or equal to 40 µM)
IC50 [2]: < 5 µM

CC(C)CN1CC2CC3CNC2(C(=O)NCCc2ccccc2)C1C3CCc1ccccc1 (centres unmarked) [IB-957]
Anti-cancer cell activity ([1]; compounds of formula XXIB): c (c if greater than 20 µM and less than or equal to 40 µM)
IC50 [2]: < 5 µM

CC(C)CN1CC2CC3CNC2(C(=O)NCc2cccc4ccccc24)C1C3CCc1ccccc1 (centres unmarked) [IB-958]
Anti-cancer cell activity ([1]; compounds of formula XXIB): b (b if greater than 10 µM and less than or equal to 20 µM)
IC50 [2]: < 5 µM

CC(C)CCN1CC2CC3(C(=O)NCc4ccc(O)cc4)NCC2C1C3CCC(=O)O (centres unmarked) [IF-445]
IC50 [2]: 10 to 30 µM

O=C(O)CCC1C2C3CNC1(C(=O)NCc1ccc(O)cc1)CC3CN2CC1CCCCC1 (centres unmarked) [IF-447]
IC50 [2]: 10 to 30 µM

O=C(O)CCN1CC2CC3(C(=O)NCCO)NCC2C1C3Cc1cccc2ccccc12 (centres unmarked) [IF-452]
IC50 [2]: 10 to 30 µM

CC(C)CNC(=O)C12CC3CN(CCC(=O)O)C(C3CN1)C2CCc1ccccc1 (centres unmarked) [IF-454]
IC50 [2]: 10 to 30 µM

CC(C)CNC(=O)C12CC3CN(CCC(=O)O)C(C3CN1)C2Cc1ccc(O)cc1 (centres unmarked) [IF-455]
IC50 [2]: 10 to 30 µM

CC(C)CCC1C2C3CNC1(C(=O)NCc1ccc(O)cc1)CC3CN2CCC(=O)O (centres unmarked) [IF-458]
IC50 [2]: 10 to 30 µM

O=C(NCc1cccc2ccccc12)C12CC3CN(Cc4ccccc4)C(C3CN1)C2Cc1ccccc1 (centres unmarked) [IF-805]
IC50 [2]: 10 to 30 µM

CC(C)CC1C2C3CNC1(C(=O)NCc1ccc(F)cc1)CC3CN2Cc1ccccc1 (centres unmarked) [IF-807]
IC50 [2]: < 5 µM

CC(C)CN1CC2CC3(C(=O)NCc4ccc(F)cc4)NCC2C1C3Cc1ccccc1 (centres unmarked) [IF-815]
IC50 [2]: < 5 µM

CC(C)CCN1CC2CC3(C(=O)NCCC(=O)O)NCC2C1C3CCc1ccccc1 (centres unmarked) [IF-830]
IC50 [2]: 10 to 30 µM

COc1cccc(CNC(=O)C23CC4CN(CC(C)C)C(C4CN2)C3CCCc2ccccc2)c1 (centres unmarked) [IF-894]
Anti-cancer cell activity ([1]; compounds of formula XXIF): c (c if greater than 20 µM and less than or equal to 40 µM)
IC50 [2]: < 5 µM

CC(C)CN1CC2CC3(C(=O)NCc4cccc(Cl)c4)NCC2C1C3CCCCc1ccccc1 (centres unmarked) [IF-895]
Anti-cancer cell activity ([1]; compounds of formula XXIF): b (b if greater than 10 µM and less than or equal to 20 µM)
IC50 [2]: < 5 µM

CC(C)CN1CC2CC3(C(=O)NCc4cccc(F)c4)NCC2C1C3CCCCc1ccccc1 (centres unmarked) [IF-896]
Anti-cancer cell activity ([1]; compounds of formula XXIF): b (b if greater than 10 µM and less than or equal to 20 µM)
IC50 [2]: < 5 µM

Cc1cccc(CNC(=O)C23CC4CN(CC(C)C)C(C4CN2)C3CCCCc2ccccc2)c1 (centres unmarked) [IF-897]
Anti-cancer cell activity ([1]; compounds of formula XXIF): b (b if greater than 10 µM and less than or equal to 20 µM)
IC50 [2]: < 5 µM

CC(C)CC1C2C=NC3(C(=O)NCc4ccccc4)C(C2)CN(Cc2ccc(Cl)cc2)C13 (centres unmarked) [IIB-83]
IC50 [2]: < 5 µM

CC(C)CC1C2C=NC3(C(=O)NCc4ccccc4)C(C2)CN(Cc2cccc(Cl)c2)C13 (centres unmarked) [IIB-84]
IC50 [2]: < 5 µM

COc1ccc(CN2CC3CC4C=NC3(C(=O)NCc3ccccc3)C2C4CC(C)C)cc1 (centres unmarked) [IIB-85]
IC50 [2]: 5 to 10 µM

Cc1ccc(CN2CC3CC4C=NC3(C(=O)NCc3ccccc3)C2C4CC(C)C)cc1 (centres unmarked) [IIB-86]
IC50 [2]: 5 to 10 µM

CC(C)CC1C2C=NC3(C(=O)NCc4ccccc4)C(C2)CN(Cc2ccc(N(C)C)cc2)C13 (centres unmarked) [IIB-94]
IC50 [2]: 5 to 10 µM

CN1CC2CC3C=NC2(C(=O)NCCc2cccc4cccnc24)C1C3Cc1ccccc1 (centres unmarked) [IIB-329]
IC50 [2]: < 5 µM

CN1CC2CC3C=NC2(C(=O)NCCc2cccc4ncccc24)C1C3Cc1ccccc1 (centres unmarked) [IIB-330]
IC50 [2]: < 5 µM

COc1ccc(CNC(=O)C23N=CC4CC2CN(CC(C)C)C3C4CCc2ccccc2)cc1 (centres unmarked) [IIB-333]
IC50 [2]: < 5 µM

CC(C)CC1C2C3C=NC1(C(=O)NCc1ccccc1)CC3CN2Cc1ccc(Cl)cc1 (centres unmarked) [IIF-83]
IC50 [2]: < 5 µM

CC(C)CC1C2C3C=NC1(C(=O)NCc1ccccc1)CC3CN2Cc1cccc(Cl)c1 (centres unmarked) [IIF-84]
IC50 [2]: 5 to 10 µM

COc1ccc(CN2CC3CC4(C(=O)NCc5ccccc5)N=CC3C2C4CC(C)C)cc1 (centres unmarked) [IIF-85]
IC50 [2]: 5 to 10 µM

Cc1ccc(CN2CC3CC4(C(=O)NCc5ccccc5)N=CC3C2C4CC(C)C)cc1 (centres unmarked) [IIF-86]
IC50 [2]: < 5 µM

CC(C)CC1C2C3C=NC1(C(=O)NCc1ccccc1)CC3CN2Cc1ccc(N(C)C)cc1 (centres unmarked) [IIF-94]
IC50 [2]: 5 to 10 µM

CC(C)CC1C2C3C=NC1(C(=O)NCc1ccccc1)CC3CN2Cc1ccc(C(C)(C)C)cc1 (centres unmarked) [IIF-95]
IC50 [2]: < 5 µM

CC(C)CC1C2C3C=NC1(C(=O)NCc1ccccc1)CC3CN2Cc1ccc(OC(F)(F)F)cc1 (centres unmarked) [IIF-96]
IC50 [2]: 5 to 10 µM

CCOc1ccc(CN2CC3CC4(C(=O)NCc5ccccc5)N=CC3C2C4CC(C)C)cc1 (centres unmarked) [IIF-97]
IC50 [2]: 10 to 30 µM
